Literature values, collected in article PMC2699040 (European Journal of Immunology, 2007).

What was measured:
[1] = system: SC21 peripheral blood lymphocytes; settings: adapted IFN-γ ELISPOT, directly ex vivo; ref [18]; cited from earlier work
[2] = system: CTL line specific for the influenza epitope KTGGAIYKR; settings: alanine-substituted at all but a single non-MHC anchor position; ref [14]; cited from earlier work

| Sequence | HLA-A68-restricted response / antigenicity [1] | Recognition by CTL line [2] |
| --- | --- | --- |
| FHCQVCFTTKALGISYGRKK [Tat4 peptide] | An HLA-A68-restricted response | – |
| ATAAAIAAR | – | recognise efficiently |
